# Assay results: patent US12398097B2, “WDR5-MYC inhibitors” (Vanderbilt University, priority 2019, dated 2025)
# Target: WDR5 (Homo sapiens, UniProt P61964)
# Experiment: Competition-based fluorescence polarization anisotropy assay
# Settings: binding to WDR5; displacement of FITC-labeled small molecule probe (analogous to Example J2 or HCH-25) or peptide probe FITC-AHx-SEEEIDVVSV; pH 6.0; Ki converted from IC50
# Protocol: Compounds of the present invention were assessed for their ability to bind to WDr5 using a competition-based fluorescence polarization anisotropy assay, similar to the method previously described. […] Fluorescence polarization measurements were performed in 384-well plates (Greiner Bio One) using a Cytation 3 plate reader (BioTek). Fluorescein isothiocyanate (FITC)-labeled peptide probe ([…]) was purchased from GenScript USA Inc and used without further purification. […] The assay buffer contained 200 mM phosphate, 300 mM NaCl, and 0.5 mM TCEP and 0.1% Chaps at pH 6.0. […] This was converted into a binding dissociation constant (Ki value) according to the formula: […] Data shown in the table below represents a K; determined from this method for each Example, using either a fluorescently labeled small molecule probe analogous to Example J2 or Example HCH-25, or the peptide probe described above, in the assay.
row,Compound,Ki [nM]
1,"COc1ccc(Br)cc1S(=O)(=O)Nc1cc(Cl)cc(C(=O)NC2CCOCC2)c1O [Example J52, 3-((5-Bromo-2-methoxyphenyl)sulfonamido)-5-chloro-2-hydroxy-N-(tetrahydro-2H-pyran-4-yl)benzamide]",3950
2,CN(C)CCNC(=O)c1cc(C2CC2)cc(NS(=O)(=O)c2cc(Br)ccc2O)c1O [Example J89],1310
3,"COC[C@@H]1CCCN1C(=O)c1cc(OC(F)(F)F)cc(NS(=O)(=O)c2cc(Br)ccc2OC)c1O [Example J180, (S)-5-Bromo-N-(2-hydroxy-3-(2-(methoxymethyl)pyrrolidine-1-carbonyl)-5-(trifluoromethoxy)phenyl)-2-methoxybenzenesulfonamide]",4020
4,"CNC(=O)c1cc(C2(C#N)CCC2)cc(NS(=O)(=O)c2cc(Br)cc3c2OCC3)c1O [SN-9, 3-((5-bromo-2,3-dihydrobenzofuran)-7-sulfonamido)-5-(1-cyanocyclobutyl)-2-hydroxy-N-methylbenzamide]",990
5,"O=C(NCCN1CCOCC1)c1cc(Cl)cc(NS(=O)(=O)c2cc(Br)ccc2O)c1O [Example J19, 3-((5-Bromo-2-hydroxyphenyl)sulfonamido)-5-chloro-2-hydroxy-N-(2-morpholinoethyl)benzamide]",1180
6,"CNC(=O)c1cc(C2(C#N)CCC2)cc(NS(=O)(=O)c2cc(Br)cc3cccnc23)c1O [Example J217, 3-((6-Bromoquinoline)-8-sulfonamido)-5-(1-cyanocyclobutyl)-2-hydroxy-N-methylbenzamide]",420
7,"CC(O)(CNC(=O)c1cc(OC(F)(F)F)cc(NS(=O)(=O)c2cc(Br)ccc2O)c1O)C1CC1 (centres unmarked) [HCH-44, 3-((5-Bromo-2-hydroxyphenyl)sulfonamido)-N-(2-cyclopropyl-2-hydroxypropyl)-2-hydroxy-5-(trifluoromethoxy)benzamide]",430
8,"O=C(N[C@@H]1CCOC1)c1c(O)c(NS(=O)(=O)c2cc(Br)ccc2O)cc(C2CC2)c1F [Example J132, (R)-3-((5-Bromo-2-hydroyphenyl)sulfonamido)-5-cyclopropyl-6-fluoro-2-hydroxy-N-(tetrahydrofuran-3-yl)benzamide]",2450
9,"C[C@@H](Nc1ccc(Br)cc1S(=O)(=O)Nc1cc(C2CC2)cc(C(=O)O)c1O)C1CC1 [Example J77, (R)-3-((5-Bromo-2-((1-cyclopropylethyl)amino)phenyl)sulfonamido)-5-cyclopropyl-2-hydroxybenzoic acid]",2870
10,"O=S(=O)(Nc1cc(OC(F)(F)F)ccc1O)c1cc(Br)ccc1O [HCH-3-48-1, 5-Bromo-2-hydroxy-N-(2-hydroxy-5-(trifluoromethoxy)phenyl)benzenesulfonamide]",550
11,"O=S(=O)(Nc1cc(Cl)ccc1O)c1cccc(Br)c1 [HCH-1-9-4re, 3-Bromo-N-(5-chloro-2-hydroxyphenyl)benzenesulfonamide]",36100
12,"O=C(NC1CCOC1)c1c(O)c(NS(=O)(=O)c2cc(Br)ccc2O)cc(C2CC2)c1F (centres unmarked) [Example J131, 3-((5-Bromo-2-hydroxyphenyl)sulfonamido)-5-cyclopropyl-6-fluoro-2-hydroxy-N-(tetrahydrofuran-3-yl)benzamide]",2990
13,"O=C(c1cc(OC(F)(F)F)cc(NS(=O)(=O)c2cc(Br)ccc2O)c1O)N1CCC[C@@H]1CO [Example J170, (R)-5-Bromo-2-hydroxy-N-(2-hydroxy-3-(2-(hydroxymethyl)pyrrolidine-1-carbonyl)-5-(trifluoromethoxy)phenyl)benzenesulfonamide]",2840
14,"O=C(NCC1CCOC1)c1cc(Cl)cc(NS(=O)(=O)c2cc(Br)ccc2O)c1O (centres unmarked) [Example J23, 3-((5-Bromo-2-hydroxyphenyl)sulfonamido)-5-chloro-2-hydroxy-N-((tetrahydrofuran-3-yl)methyl)benzamide]",490

# Next, values leading:
row,Ki [nM],Compound
1,850,"CS(=O)(=O)c1cc(Cl)cc(NS(=O)(=O)c2cc(Br)cc3c2OCC3)c1O [Example S55, 5-Bromo-N-(5-chloro-2-hydroxy-3-(methylsulfonyl)phenyl)-2,3-dihydrobenzofuran-7-sulfonamide]"
2,11100,"CCc1cc(O)c(S(=O)(=O)Nc2cc(Cl)cc(C(=O)O)c2O)cc1Cl [Example J12, 5-Chloro-3-((5-chloro-4-ethyl-2-hydroxyphenyl)sulfonamido)-2-hydroxybenzoic acid]"
3,440,"CCC(C)(O)CNC(=O)c1cc(OC(F)(F)F)cc(NS(=O)(=O)c2cc(Br)ccc2O)c1O (centres unmarked) [HCH-45, 3-((5-Bromo-2-hydroxyphenyl)sulfonamido)-2-hydroxy-N-(2-hydroxy-2-methylbutyl)-5-(trifluoromethoxy)benzamide]"
4,1450,"CN(C)CCCS(=O)(=O)c1cc(Cl)cc(NS(=O)(=O)c2cc(Br)cc(Cl)c2O)c1 [Example S51, 5-Bromo-3-chloro-N-(3-chloro-5-((3-(dimethylamino)propyl)sulfonyl)phenyl)-2-hydroxybenzenesulfonamide]"
5,90,"CCc1cc(NS(=O)(=O)c2cc(Br)cc(Cl)c2O)c(O)c(C(=O)O)c1 [HCH-22, 3-((5-Bromo-3-chloro-2-hydroxyphenyl)sulfonamido)-5-ethyl-2-hydroxybenzoic acid]"
6,780,"O=C(O)c1cc(Cl)cc(NS(=O)(=O)c2cc(Br)cc3cccnc23)c1O [Example J13, 3-((6-Bromoquinoline)-8-sulfonamido)-5-chloro-2-hydroxybenzoic acid]"
7,370,"CNC(=O)c1cc(Cl)cc(NS(=O)(=O)c2cc(Br)ccc2O)c1O [Example J14, 3-((5-Bromo-2-hydroxyphenyl)sulfonamido)-5-chloro-2-hydroxy-N-methylbenzamide]"
8,330,"CC(C)[S+]([O-])c1cc(Cl)cc(NS(=O)(=O)c2cc(Br)cc(Cl)c2O)c1O (centres unmarked) [Example S23.2, 5-Bromo-3-chloro-N-(5-chloro-2-hydroxy-3-(isopropylsulfinyl)phenyl)-2-hydroxybenzenesulfonamide]"
9,150,"CC(NC(=O)c1cc(OC(F)(F)F)cc(NS(=O)(=O)c2cc(Br)cc(Cl)c2O)c1O)C(N)=O (centres unmarked) [HCH-57, N-(1-Amino-1-oxopropan-2-yl)-3-((5-bromo-3-chloro-2-hydroxyphenyl)sulfonamido)-2-hydroxy-5-(trifluoromethoxy)benzamide]"
10,580,"NC(=O)c1cc(OC(F)(F)F)cc(NS(=O)(=O)c2cc(Br)cc(CCCO)c2O)c1O [HCH-4, 3-((5-Bromo-2-hydroxy-3-(3-hydroxypropyl)phenyl)sulfonamido)-2-hydroxy-5-(trifluoromethoxy)benzamide]"
11,390,"CNC(=O)c1cc(C2(C#N)CCC2)cc(NS(=O)(=O)c2cc(Br)ccc2OC)c1O [Example J210, 3-((5-Bromo-2-methoxyphenyl)sulfonamido)-5-(1-cyanocyclobutyl)-2-hydroxy-N-methylbenzamide]"
12,120,"CC(O)(CNC(=O)c1cc(OC(F)(F)F)cc(NS(=O)(=O)c2cc(Br)cc(Cl)c2O)c1O)C1CC1 (centres unmarked) [HCH-51, 3-((5-Bromo-3-chloro-2-hydroxyphenyl)sulfonamido)-N-(2-cyclopropyl-2-hydroxypropyl)-2-hydroxy-5-(trifluoromethoxy)benzamide]"
13,30,"CS(=O)(=O)c1cc(NS(=O)(=O)c2cc(Br)cc(Cl)c2O)cc(S(F)(F)(F)(F)F)c1 [Example S14, 5-Bromo-3-chloro-2-hydroxy-N-(3-(methylsulfonyl)-5-(pentafluoro-λ^6-sulfaneyl)phenyl)benzenesulfonamide]"
14,240,"CS(=O)(=O)c1cc(C2CC2)cc(NS(=O)(=O)c2cc(Br)ccc2O)c1O [Example S26, 5-Bromo-N-(5-cyclopropyl-2-hydroxy-3-(methylsulfonyl)phenyl)-2-hydroxybenzenesulfonamide]"
15,370,"O=C1NCCN1c1cc(Cl)cc(NS(=O)(=O)c2cc(Br)cc(Cl)c2O)c1 [NE14, 5-Bromo-3-chloro-N-(3-chloro-5-(2-oxoimidazolidin-1-yl)phenyl)-2-hydroxybenzenesulfonamide]"
16,270,"NC(=O)c1cc(Cl)cc(NS(=O)(=O)c2cc(Br)cc(Cl)c2O)c1O [HCH-25, 3-((5-Bromo-3-chloro-2-hydroxyphenyl)sulfonamido)-5-chloro-2-hydroxybenzamide]"
17,20,"N#CC1(c2cc(NS(=O)(=O)c3cc(Br)cc(Cl)c3O)c(O)c(C(=O)O)c2)CCCCC1 [Example J234, 3-((5-Bromo-3-chloro-2-hydroxyphenyl)sulfonamido)-5-(1-cyanocyclohexyl)-2-hydroxybenzoic acid]"
18,210,"COCCNC(=O)c1cc(C2CC2)cc(NS(=O)(=O)c2cc(Br)cc(Cl)c2O)c1F [Example J157, 3-((5-Bromo-3-chloro-2-hydroxyphenyl)sulfonamido)-5-cyclopropyl-2-fluoro-N-(2-methoxyethyl)benzamide]"
19,8170,"COc1ccc(Br)cc1S(=O)(=O)Nc1cc(Cl)cc(C(=O)N2CCC[C@@H]2CO)c1O [Example J55, (R)-5-Bromo-N-(5-chloro-2-hydroxy-3-(2-(hydroxymethyl)pyrrolidine-1-carbonyl)phenyl)-2-methoxybenzenesulfonamide]"
20,340,"CCN(CC)CCS(=O)(=O)c1cc(Cl)cc(NS(=O)(=O)c2cc(Br)cc(Cl)c2O)c1 [Example S35, 5-Bromo-3-chloro-N-(3-chloro-5-((2-(diethylamino)ethyl)sulfonyl)phenyl)-2-hydroxybenzenesulfonamide]"
21,5510,"COc1ccc(Br)cc1S(=O)(=O)Nc1cc(Cl)cc(C(=O)N2CC(O)C2)c1O [Example J63, 5-Bromo-N-(5-chloro-2-hydroxy-3-(3-hydroxyazetidine-1-carbonyl)phenyl)-2-methoxybenzenesulfonamide]"
